Results taken from patent US20200325509A1, “Microorganisms and Methods in the Fermentation of Benzylisoquinoline Alkaloids” (Intrexon Corporation, priority 2017, published 2020).

Legend:
[1] = stability of salutaridinol 7-O-acetate in chloroform and aqueous conditions
THS2 = THS2 (Papaver somniferum, UniProt A0A2U9GGW3); assay: direct in vitro THS assay (kinetic analysis of THS2); details: for inhibition of THS2 activity on (7S)-salutaridinol 7-O-acetate: added to the direct assay
[2] = substrate of purified recombinant THS2, direct assay quenched after 30 sec

Chain of THS2 (A0A2U9GGW3 whole entry): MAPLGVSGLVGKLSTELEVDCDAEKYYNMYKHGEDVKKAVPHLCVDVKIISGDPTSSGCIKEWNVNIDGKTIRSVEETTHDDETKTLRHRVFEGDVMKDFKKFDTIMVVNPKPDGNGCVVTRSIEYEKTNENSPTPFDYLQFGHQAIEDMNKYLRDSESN

| SMILES | formation of m/z 330-byproduct ([1]; exposure to aqueous conditions) [%] | time of formation of m/z 330-byproduct ([1]; exposure to aqueous conditions) [min] | stability ([1]; in chloroform) | pH optimum (THS2; THS2 activity on this substrate, direct assay 30 sec, 40 μM substrate) | positive cooperativity (η) (THS2; substrate of purified recombinant THS2, direct assay) | KA (THS2; [2]) [µM] | Vmax (THS2; [2]) [nmol min^1 μg^−1] | inhibition of THS2 activity on (7S)-salutaridinol 7-O-acetate (THS2) | thebaine production by THS2 directly from the substance (THS2; pH 7.0) |
| --- | --- | --- | --- | --- | --- | --- | --- | --- | --- |
| COC1=C[C@]23CCN(C)[C@H](Cc4ccc(OC)c(O)c42)C3=C[C@@H]1OC(C)=O [(7S)-salutaridinol 7-O-acetate] | > 70 | < 2 | relatively stable | 8.0 | 2.3 | 20 | 4.0 |  |  |
| COC1=C[C@]23CCN(C)[C@H](Cc4ccc(OC)c(O)c42)C3=C[C@@H]1O [(7S)-salutaridinol] |  |  |  |  |  |  |  | marginally inhibited | did not produce thebaine |
| COC1=C[C@]23CCN(C)[C@H](Cc4ccc(OC)c(O)c42)C3=CC1=O [salutaridine] |  |  |  |  |  |  |  | marginally inhibited |  |
